{"source": "paper PMC9516332", "about": "(Frontiers in Oncology, 2022)", "key": {"[1]": {"test_system": "134 cancer cell lines", "test": "Cell viability assay (ATPlite, 72 hours), IC50 on cancer cell line panel"}, "[2]": {"biological_target": "panel of 255 wild-type kinases (Homo sapiens, UniProt P29317)", "sequence (P29317 24-976)": "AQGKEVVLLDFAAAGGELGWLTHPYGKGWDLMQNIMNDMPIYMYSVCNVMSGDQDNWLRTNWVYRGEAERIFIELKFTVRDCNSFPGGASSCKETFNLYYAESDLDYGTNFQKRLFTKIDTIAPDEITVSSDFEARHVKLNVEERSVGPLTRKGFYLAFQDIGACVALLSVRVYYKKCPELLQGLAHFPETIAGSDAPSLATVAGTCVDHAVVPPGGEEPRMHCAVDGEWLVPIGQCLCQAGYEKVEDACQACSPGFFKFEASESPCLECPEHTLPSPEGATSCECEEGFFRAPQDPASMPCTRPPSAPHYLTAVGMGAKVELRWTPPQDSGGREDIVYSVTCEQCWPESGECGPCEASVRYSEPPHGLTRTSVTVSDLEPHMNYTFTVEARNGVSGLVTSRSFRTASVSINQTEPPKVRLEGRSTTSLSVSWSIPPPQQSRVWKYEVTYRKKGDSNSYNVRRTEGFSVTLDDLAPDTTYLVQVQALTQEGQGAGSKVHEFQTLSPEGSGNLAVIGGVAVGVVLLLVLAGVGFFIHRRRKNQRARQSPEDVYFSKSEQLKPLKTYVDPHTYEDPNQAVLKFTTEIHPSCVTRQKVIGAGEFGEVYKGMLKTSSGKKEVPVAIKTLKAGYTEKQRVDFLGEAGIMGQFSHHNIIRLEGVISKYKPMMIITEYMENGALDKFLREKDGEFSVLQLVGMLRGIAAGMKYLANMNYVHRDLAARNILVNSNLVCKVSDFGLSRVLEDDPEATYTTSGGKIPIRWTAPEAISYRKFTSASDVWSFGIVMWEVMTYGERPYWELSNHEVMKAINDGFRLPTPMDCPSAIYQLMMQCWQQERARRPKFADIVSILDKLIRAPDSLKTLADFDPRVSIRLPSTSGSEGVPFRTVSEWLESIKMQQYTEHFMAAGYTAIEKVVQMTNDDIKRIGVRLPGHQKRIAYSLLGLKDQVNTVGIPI", "test": "Kinase panel profiling at 1 µmol/L (MSA or IMAP), percentage inhibition", "type": "biochemical", "conditions": "kinase EPHA2; 1 µmol/L single concentration; read-out: %-inhibition at 1 µmol/L, EPHA2"}, "[3]": {"biological_target": "panel of 255 wild-type kinases (Homo sapiens, UniProt Q9Y6M4)", "sequence (Q9Y6M4 whole entry)": "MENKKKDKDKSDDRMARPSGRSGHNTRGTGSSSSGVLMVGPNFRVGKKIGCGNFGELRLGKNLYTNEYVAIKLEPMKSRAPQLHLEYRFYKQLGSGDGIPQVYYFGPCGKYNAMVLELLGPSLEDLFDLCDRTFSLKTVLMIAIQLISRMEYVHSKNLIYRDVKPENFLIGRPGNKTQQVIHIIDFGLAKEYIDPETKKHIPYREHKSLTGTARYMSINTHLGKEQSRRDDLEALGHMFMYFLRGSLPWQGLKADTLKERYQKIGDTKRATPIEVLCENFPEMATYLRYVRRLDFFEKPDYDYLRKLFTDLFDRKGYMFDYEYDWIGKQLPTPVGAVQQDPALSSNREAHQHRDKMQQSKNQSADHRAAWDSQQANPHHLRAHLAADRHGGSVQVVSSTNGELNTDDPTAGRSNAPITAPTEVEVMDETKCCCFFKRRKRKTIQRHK", "test": "Kinase panel profiling at 1 µmol/L (MSA or IMAP), percentage inhibition", "type": "biochemical", "conditions": "kinase CK1γ3; 1 µmol/L single concentration; read-out: %-inhibition at 1 µmol/L, CK1γ3"}}, "note": "Like-named read-outs stand apart in the source and are kept apart here.", "data": [{"molecule": "Cn1cnc2c(F)c(Nc3ccc(Br)cc3Cl)c(C(=O)NOCCO)cc21", "note": "[selumetinib]", "values": [{"measurement": "IC50", "setting": "[1]; Homo sapiens, MV4-11, read-out: IC50 in cell proliferation assay, MV4-11 cell line (FLT3 ITD)", "result": 178, "unit": "nM"}, {"measurement": "IC50", "setting": "[1]; Homo sapiens, MeWo, read-out: IC50 in cell proliferation assay, MeWo cell line", "result": 5400, "unit": "nM"}, {"measurement": "IC50", "setting": "[1]; Homo sapiens, NCCIT, read-out: IC50 in cell proliferation assay, NCC-IT cell line", "result": 25900, "unit": "nM"}, {"measurement": "IC50", "setting": "[1]; Homo sapiens, NCI-H82, read-out: IC50 in cell proliferation assay, cell line NCI-H82", "result": 6840, "unit": "nM"}, {"measurement": "IC50", "setting": "[1]; Homo sapiens, NCI-H460, read-out: IC50 in cell proliferation assay, NCI-H460 cell line", "result": 297, "unit": "nM"}, {"measurement": "IC50", "setting": "[1]; Homo sapiens, NCI-H661, read-out: IC50 in cell proliferation assay, NCI-H661 cell line", "result": "> 31600", "unit": "nM"}, {"measurement": "IC50", "setting": "[1]; Homo sapiens, NCI-H716, read-out: IC50 in cell proliferation assay, cell line NCI-H716 (FGFR2-COL14A1)", "result": 197, "unit": "nM"}, {"measurement": "IC50", "setting": "[1]; Homo sapiens, NCI-H1650, read-out: IC50 in cell proliferation assay, NCI-H1650 cell line (EGFR exon19del)", "result": "> 31600", "unit": "nM"}, {"measurement": "IC50", "setting": "[1]; Homo sapiens, NCI-H1975, read-out: IC50 in cell proliferation assay, NCI-H1975 cell line (EGFR p.L858R + p.T790M)", "result": 1920, "unit": "nM"}, {"measurement": "IC50", "setting": "[1]; Homo sapiens, NCI-H2228, read-out: IC50 in cell proliferation assay, NCI-H2228 cell line (EML4-ALK)", "result": 294, "unit": "nM"}, {"measurement": "IC50", "setting": "[1]; Homo sapiens, OVCAR-3, read-out: IC50 in cell proliferation assay, cell line OVCAR-3", "result": "> 31600", "unit": "nM"}, {"measurement": "IC50", "setting": "[1]; Homo sapiens, PFSK-1, read-out: IC50 in cell proliferation assay, cell line PFSK-1", "result": "> 31600", "unit": "nM"}, {"measurement": "IC50", "setting": "[1]; Homo sapiens, RL95-2, read-out: IC50 in cell proliferation assay, cell line RL95-2 (EGFR p.A289V)", "result": 12, "unit": "nM"}, {"measurement": "IC50", "setting": "[1]; Homo sapiens, RPMI-7951, read-out: IC50 in cell proliferation assay, cell line RPMI-7951 (BRAF p.V600E)", "result": 143, "unit": "nM"}, {"measurement": "IC50", "setting": "[1]; Homo sapiens, RS4-11, read-out: IC50 in cell proliferation assay, cell line RS4;11", "result": 18200, "unit": "nM"}, {"measurement": "IC50", "setting": "[1]; Homo sapiens, Rec1, read-out: IC50 in cell proliferation assay, cell line REC-1", "result": "> 31600", "unit": "nM"}, {"measurement": "IC50", "setting": "[1]; Homo sapiens, SHP77, read-out: IC50 in cell proliferation assay, cell line SHP-77", "result": "> 31600", "unit": "nM"}, {"measurement": "IC50", "setting": "[1]; Homo sapiens, SK-BR-3, read-out: IC50 in cell proliferation assay, cell line SK-BR-3 (ERBB2 amplification)", "result": "> 31600", "unit": "nM"}, {"measurement": "IC50", "setting": "[1]; Homo sapiens, SK-N-AS, read-out: IC50 in cell proliferation assay, cell line SK-N-AS", "result": 20, "unit": "nM"}, {"measurement": "IC50", "setting": "[1]; Homo sapiens, SK-N-FI, read-out: IC50 in cell proliferation assay, cell line SK-N-FI", "result": 8410, "unit": "nM"}, {"measurement": "IC50", "setting": "[1]; Homo sapiens, SK-N-MC, read-out: IC50 in cell proliferation assay, cell line SK-N-MC", "result": "> 31600", "unit": "nM"}, {"measurement": "IC50", "setting": "[1]; Homo sapiens, SK-N-SH, read-out: IC50 in cell proliferation assay, cell line SK-N-SH (ALK p.F1174L)", "result": 66, "unit": "nM"}, {"measurement": "IC50", "setting": "[1]; Homo sapiens, SNU-5, read-out: IC50 in cell proliferation assay, cell line SNU-5 (MET amplification)", "result": 1310, "unit": "nM"}, {"measurement": "IC50", "setting": "[1]; Homo sapiens, SNU-16, read-out: IC50 in cell proliferation assay, cell line SNU-16 (FGFR2 amplification)", "result": "> 31600", "unit": "nM"}, {"measurement": "IC50", "setting": "[1]; Homo sapiens, SNU-C2B, read-out: IC50 in cell proliferation assay, cell line SNU-C2B (EGFR p.R165Q)", "result": 36, "unit": "nM"}, {"measurement": "IC50", "setting": "[1]; Homo sapiens, SU-DHL-1, read-out: IC50 in cell proliferation assay, cell line SU-DHL-1 (NPM1-ALK)", "result": 7710, "unit": "nM"}, {"measurement": "IC50", "setting": "[1]; Homo sapiens, SU-DHL-6, read-out: IC50 in cell proliferation assay, cell line SU-DHL-6", "result": "> 31600", "unit": "nM"}, {"measurement": "IC50", "setting": "[1]; Homo sapiens, SUP-T1, read-out: IC50 in cell proliferation assay, cell line SUP-T1", "result": "> 31600", "unit": "nM"}, {"measurement": "IC50", "setting": "[1]; Homo sapiens, SW48, read-out: IC50 in cell proliferation assay, cell line SW48 (EGFR p.G719S)", "result": 34, "unit": "nM"}, {"measurement": "IC50", "setting": "[1]; Homo sapiens, SW480, read-out: IC50 in cell proliferation assay, cell line SW480", "result": 29, "unit": "nM"}, {"measurement": "IC50", "setting": "[1]; Homo sapiens, SW626, read-out: IC50 in cell proliferation assay, cell line SW626", "result": 44, "unit": "nM"}, {"measurement": "IC50", "setting": "[1]; Homo sapiens, SW780, read-out: IC50 in cell proliferation assay, cell line SW780 (FGFR3-BAIAP2L1)", "result": 447, "unit": "nM"}, {"measurement": "IC50", "setting": "[1]; Homo sapiens, SW837, read-out: IC50 in cell proliferation assay, cell line SW837", "result": 220, "unit": "nM"}, {"measurement": "IC50", "setting": "[1]; Homo sapiens, SW872, read-out: IC50 in cell proliferation assay, cell line SW872 (BRAF p.V600E)", "result": 25, "unit": "nM"}, {"measurement": "IC50", "setting": "[1]; Homo sapiens, SW900, read-out: IC50 in cell proliferation assay, cell line SW900", "result": 35, "unit": "nM"}, {"measurement": "IC50", "setting": "[1]; Homo sapiens, SW948, read-out: IC50 in cell proliferation assay, cell line SW948", "result": 62, "unit": "nM"}, {"measurement": "IC50", "setting": "[1]; Homo sapiens, SW982, read-out: IC50 in cell proliferation assay, cell line SW982 (BRAF p.V600E)", "result": 972, "unit": "nM"}, {"measurement": "IC50", "setting": "[1]; Homo sapiens, SW-620, read-out: IC50 in cell proliferation assay, cell line SW620", "result": 24, "unit": "nM"}, {"measurement": "IC50", "setting": "[1]; Homo sapiens, T98G, read-out: IC50 in cell proliferation assay, cell line T98G", "result": "> 31600", "unit": "nM"}, {"measurement": "IC50", "setting": "[1]; Homo sapiens, TCC-SUP, read-out: IC50 in cell proliferation assay, cell line TCCSUP", "result": "> 31600", "unit": "nM"}, {"measurement": "IC50", "setting": "[1]; Homo sapiens, THP-1, read-out: IC50 in cell proliferation assay, cell line THP-1", "result": 25, "unit": "nM"}, {"measurement": "IC50", "setting": "[1]; Homo sapiens, U2OS, read-out: IC50 in cell proliferation assay, cell line U2OS", "result": 10600, "unit": "nM"}, {"measurement": "IC50", "setting": "[1]; Homo sapiens, U-87 MG, read-out: IC50 in cell proliferation assay, cell line U-87MG ATCC", "result": 1090, "unit": "nM"}, {"measurement": "IC50", "setting": "[1]; Homo sapiens, U-118-MG, read-out: IC50 in cell proliferation assay, cell line U-118MG", "result": "> 31600", "unit": "nM"}, {"measurement": "IC50", "setting": "[1]; Homo sapiens, UMUC3, read-out: IC50 in cell proliferation assay, cell line UM-UC-3", "result": 801, "unit": "nM"}, {"measurement": "IC50", "setting": "[1]; Hs766T, read-out: IC50 in cell proliferation assay, Hs 766T cell line", "result": 22, "unit": "nM"}, {"measurement": "IC50", "setting": "[1]; L-82, read-out: IC50 in cell proliferation assay, L-82 cell line (NPM1-ALK)", "result": 950, "unit": "nM"}, {"measurement": "IC50", "setting": "[1]; Rh30, read-out: IC50 in cell proliferation assay, cell line Rh30", "result": "> 31600", "unit": "nM"}, {"measurement": "IC50", "setting": "[1]; read-out: IC50 in cell proliferation assay, 11-18 cell line (EGFR p.L858R)", "result": "> 31600", "unit": "nM"}, {"measurement": "IC50", "setting": "[1]; read-out: IC50 in cell proliferation assay, Hs 852.T cell line", "result": 345, "unit": "nM"}, {"measurement": "IC50", "setting": "[1]; read-out: IC50 in cell proliferation assay, JAR cell line", "result": "> 31600", "unit": "nM"}, {"measurement": "IC50", "setting": "[1]; read-out: IC50 in cell proliferation assay, cell line 5637", "result": 8000, "unit": "nM"}, {"measurement": "IC50", "setting": "[1]; read-out: IC50 in cell proliferation assay, cell line A-388", "result": "> 31600", "unit": "nM"}, {"measurement": "IC50", "setting": "[1]; read-out: IC50 in cell proliferation assay, cell line DB", "result": "> 31600", "unit": "nM"}, {"measurement": "IC50", "setting": "[1]; read-out: IC50 in cell proliferation assay, cell line DEL (NPM1-ALK)", "result": "> 31600", "unit": "nM"}, {"measurement": "IC50", "setting": "[1]; read-out: IC50 in cell proliferation assay, cell line ES-2 (BRAF p.V600E)", "result": 242, "unit": "nM"}, {"measurement": "IC50", "setting": "[1]; read-out: IC50 in cell proliferation assay, cell line PA-1", "result": 556, "unit": "nM"}, {"measurement": "IC50", "setting": "[1]; read-out: IC50 in cell proliferation assay, cell line PC-3", "result": "> 31600", "unit": "nM"}, {"measurement": "IC50", "setting": "[1]; read-out: IC50 in cell proliferation assay, cell line RD", "result": 59, "unit": "nM"}, {"measurement": "IC50", "setting": "[1]; read-out: IC50 in cell proliferation assay, cell line RKO (BRAF p.V600E)", "result": 367, "unit": "nM"}, {"measurement": "IC50", "setting": "[1]; read-out: IC50 in cell proliferation assay, cell line RL", "result": "> 31600", "unit": "nM"}, {"measurement": "IC50", "setting": "[1]; read-out: IC50 in cell proliferation assay, cell line RT-4 (FGFR3-TACC3)", "result": 21300, "unit": "nM"}, {"measurement": "IC50", "setting": "[1]; read-out: IC50 in cell proliferation assay, cell line SR (NPM1-ALK)", "result": 25500, "unit": "nM"}, {"measurement": "IC50", "setting": "[1]; read-out: IC50 in cell proliferation assay, cell line T24", "result": 92, "unit": "nM"}, {"measurement": "IC50", "setting": "[1]; read-out: IC50 in cell proliferation assay, cell line TT (RET p.C634W)", "result": "> 31600", "unit": "nM"}, {"measurement": "IC50", "setting": "[1]; read-out: IC50 in cell proliferation assay, cell line VA-ES-BJ", "result": "> 31600", "unit": "nM"}, {"measurement": "inhibition at 1 µM", "setting": "[2]", "result": -1.4, "unit": "%"}, {"measurement": "inhibition at 1 µM", "setting": "[3]", "result": -1, "unit": "%"}]}]}
